The assay deals with M. tuberculosis H37Rv growth inhibition. In words: Mycobacterium tuberculosis H37Rv growth inhibition, putative kinase inhibitor library, confirmatory dose response (AID 2842).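 Further: bacteria incubated one week before Alamar blue readout.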

49 molecules from PubChem BioAssay AID2842 (Southern Research Institute, 2010) can be followed below.

Converted amounts (≈) assume the structure as drawn.

For the molecule `COc1cccc(-c2nnc(NC(=O)c3cccc(F)c3)o2)c1`, the IC90 (usually the concentration needed for an effect of 90%) is less than 0.2 mg/L.
The same measure for `Cc1ccc(C)c(-c2nnc(NC(=O)c3ccc(S(=O)(=O)N(C)c4ccccc4)cc3)o2)c1`: 13.3 mg/L (≈ 28.8 µM); for `NC(=O)c1c(NC(=O)c2ccc([N+](=O)[O-])o2)sc2c1CCCCC2`: 0.52 mg/L (≈ 1.49 µM); for `COC(=O)c1ccc(NC(=O)CSc2nc(-c3ccc(C)cc3)ns2)cc1`: 21.3 mg/L (≈ 53.4 µM).
The same measure for `COc1ccc(Cn2cc(C(=O)c3ccc(C)cc3)c(=O)c3cc(OC)c(OC)cc32)cc1`: 7.05 mg/L (≈ 15.9 µM); for `Cc1c(CCC#N)c(=O)n2c([nH]c3ccccc32)c1C#N`: 2.29 mg/L (≈ 8.29 µM); for `Cc1cc(NC(=O)/C=C/c2ccc([N+](=O)[O-])s2)no1`: 4.04 mg/L (≈ 14.5 µM).
With `O=C1C(Cl)=C(Nc2ccccc2O)C(=O)N1c1ccc(Cl)c(Cl)c1`, the IC90 was 0.84 mg/L (≈ 2.19 µM).
The same measure for `Cc1cc(C)c2nc(NNC(=O)c3ccc(N(C)C)cc3)sc2c1`: 3.23 mg/L (≈ 9.49 µM); for `Cc1ccc2[nH]c(=O)c(C3=NN(C(=O)c4ccco4)C(c4ccco4)C3)c(-c3ccccc3)c2c1` (centres undefined): 15.4 mg/L (≈ 33.3 µM); for `Cc1ccc(C)c2sc(N(CCCn3ccnc3)C(=O)c3ccc(F)cc3)nc12`: 4.35 mg/L (≈ 10.6 µM).
`Cc1ccc(-c2nnc(NC(=O)C(C)C)o2)c(C)c1`: the 90% effect concentration (IC90) is 8.43 mg/L (≈ 32.5 µM).
The same measure for `O=C(COc1ccc2c3c(c(=O)oc2c1)CCCC3)OC1CCCCC1`: 9.71 mg/L (≈ 27.2 µM); for `CCCCCOc1ccc(C(=O)Nc2nnc(-c3ccccn3)o2)cc1`: 2.15 mg/L (≈ 6.1 µM); for `O=C(Nc1nnc(-c2ccc(Br)cc2)o1)c1sc2ccccc2c1Cl`: 6.7 mg/L (≈ 15.4 µM).
The same measure for `O=C(Nc1nnc(-c2ccc(Cl)cc2)o1)c1ccco1`: 1.11 mg/L (≈ 3.83 µM).
With `Clc1cccc(Nc2ccc(NCc3ccccc3)nn2)c1`, the concentration for an effect of 90% (IC90) was 6.71 mg/L (≈ 21.6 µM).
Consider `O=C(NNc1nc2ccc(Cl)cc2s1)c1nc2ccccc2s1`, for which the 90% effect concentration (IC90) is 3.15 mg/L (≈ 8.73 µM).
For `O=C(Nc1nc2c(s1)CCc1ccccc1-2)c1cccc(Cl)c1`, the 90% effect concentration (IC90) was 12.4 mg/L (≈ 36.5 µM).
As to `COc1ccc(C(=O)/C=C2\C(=O)Nc3ccccc32)cc1`, the IC90 was 38.6 mg/L (≈ 138 µM).
`CCOc1ccc(-c2nnc3c4cc5c(cc4n(Cc4ccccc4OC)cc2-3)OCO5)cc1`: the concentration for an effect of 90% (IC90) was 9.22 mg/L (≈ 20.3 µM).
`CCCCCOc1ccc(C(=O)Nc2nnc(-c3ccco3)o2)cc1`: the 90% effect concentration (IC90) was 8.78 mg/L (≈ 25.7 µM).
As for `Oc1cc(OCc2ccccc2Cl)ccc1-c1[nH]ncc1-c1ccccc1`, the 90% effect concentration (IC90) was 7.69 mg/L (≈ 20.4 µM).
In the case of `COc1cccc(-c2nnc(NC(=O)c3ccccc3Cl)o2)c1`, the 90% effect concentration (IC90) was 2.69 mg/L (≈ 8.16 µM).
The same measure for `O=C(COc1ccccc1)Nc1nnc(-c2ccc3c(c2)CCCC3)o1`: 6.48 mg/L (≈ 18.5 µM); for `O=C(Cc1ccccc1)N(CCCn1ccnc1)c1nc2c(F)cccc2s1`: 7.4 mg/L (≈ 18.8 µM).
With `COc1cccc2sc(Nc3nc(-c4ccc(Cl)s4)cs3)nc12`, the IC90 is 7.28 mg/L (≈ 19.2 µM).
The same measure for `Cc1ccc(C)c(-c2nnc(NC(=O)c3ccccc3F)o2)c1`: less than 0.2 mg/L; for `O=C(Nc1nnc(-c2ccc3c(c2)CCCC3)o1)c1ccc(Cl)cc1Cl`: 0.91 mg/L (≈ 2.34 µM); for `O=C(Nc1nnc(-c2ccccc2)o1)c1nc2ccccc2s1`: 5.84 mg/L (≈ 18.1 µM).
Under `Cc1ccc(C)c(-c2nnc(NC(=O)c3ccc(S(=O)(=O)N4CCc5ccccc54)cc3)o2)c1` stands 12.4 mg/L (≈ 26.1 µM); under `O=c1c2ccccc2oc2cc(O)ccc12`, 50 mg/L (≈ 236 µM).
The same measure for `Cc1ccc(N2C(=O)C(Cl)=C(Nc3cc(Cl)ccc3O)C2=O)cc1`: 25.4 mg/L (≈ 69.8 µM); for `CC(C)(C)c1ccc(C(=O)Nc2nnc(-c3ccccn3)o2)cc1`: 8.06 mg/L (≈ 25 µM).
Take `Cc1ccc(C)c(-c2nnc(NC(=O)c3ccccc3Cl)o2)c1`: the IC90 was 3.12 mg/L (≈ 9.52 µM).
The same measure for `O=C(Nc1nnc(-c2cc(Cl)ccc2Cl)o1)c1ccc(Cl)cc1Cl`: 0.74 mg/L (≈ 1.84 µM); for `O=C(CS(=O)(=O)c1ccccc1)Nc1nc(-c2ccc3c(c2)CCCC3)cs1`: 1.02 mg/L (≈ 2.47 µM); for `Cc1c(Cl)ccc2sc(N(CCCn3ccnc3)C(=O)c3ccco3)nc12`: 0.23 mg/L (≈ 0.574 µM).
Take `CC(=O)N1CCc2c(sc(NC(=O)c3ccc(C)cc3)c2C(N)=O)C1`: the concentration for an effect of 90% (IC90) is 8.93 mg/L (≈ 25 µM).
Under `CC(C)COc1ccc(S(=O)(=O)Nc2ccc3c(c2)C(=O)Nc2ccccc2O3)cc1` stands 6.99 mg/L (≈ 15.9 µM); under `Cc1cccc(C(=O)Nc2nnc(C3=COCCO3)o2)c1`, 3.36 mg/L (≈ 11.7 µM).
The same measure for `COc1ccc(-c2cc3ccccc3n2CC(O)CNCCc2ccccc2)cc1` (centres undefined): 4.11 mg/L (≈ 10.3 µM); for `CCN(c1ccccc1)S(=O)(=O)c1ccc(C(=O)Nc2ccc3ncsc3c2)cc1`: 14.7 mg/L (≈ 33.5 µM); for `Cc1ccc2sc(NNC(=O)c3cc4ccccc4oc3=O)nc2c1C`: 4.21 mg/L (≈ 11.5 µM).
`Cc1ccc(C)c(-c2nnc(NC(=O)C(C)(C)C)o2)c1`: the 90% effect concentration (IC90) was 1.32 mg/L (≈ 4.83 µM).
The same measure for `O=C(COc1ccc(Cl)cc1)NCCSc1ncc(-c2ccc(F)cc2)[nH]1`: 10 mg/L (≈ 24.6 µM).
Turning to `COc1cc(/C=C(\C#N)c2nc(-c3ccc(C)cc3)cs2)cc([N+](=O)[O-])c1O`, the IC90 was 3.26 mg/L (≈ 8.29 µM).
The same measure for `COc1cccc(-c2nnc(NC(=O)c3ccccc3Br)o2)c1`: 2.17 mg/L (≈ 5.8 µM).
Under `O=C1CN(C(=O)c2cccc(F)c2)C(c2ccc(F)cc2)c2cc(Br)ccc2N1` (centres undefined) stands 32.1 mg/L (≈ 70.2 µM).
